Measurements from US7323541B2, “Polypeptide DNA thereof and use of the same” (Takeda Pharmaceutical Company Limited, priority 2001, dated 2008).
Where no end group is shown, it is not given here.

How the values were obtained:
[1] = biological target: T1, TGR23-2 expressing CHO cells (Homo sapiens, UniProt Q6W5P4, N107I/Q344R); experiment: Enhancing activity of arachidonic acid metabolite release; format: cell-based
T1 construct: the clones having the cDNA of TGR23-2, which is contained in pTB2174, were selected; expressed in transfected cells; host or cells: hamster CHO/dhfr- cells, vector pAKKO-111H (pAKKO-TGR23-2)
T1 sequence (Q6W5P4 1-371 N107I/Q344R): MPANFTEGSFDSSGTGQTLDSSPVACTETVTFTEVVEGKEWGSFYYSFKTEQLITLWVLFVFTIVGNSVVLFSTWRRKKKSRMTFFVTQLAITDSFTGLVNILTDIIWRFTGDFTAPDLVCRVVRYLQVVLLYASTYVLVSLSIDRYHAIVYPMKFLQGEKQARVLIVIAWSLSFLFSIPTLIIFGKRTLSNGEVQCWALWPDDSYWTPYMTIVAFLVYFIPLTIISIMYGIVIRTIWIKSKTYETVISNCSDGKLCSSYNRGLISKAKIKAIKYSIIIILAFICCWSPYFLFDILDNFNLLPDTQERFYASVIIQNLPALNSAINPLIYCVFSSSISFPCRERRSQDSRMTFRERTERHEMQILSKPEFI
Procedure: The CHO/TGR23-2 cells prepared in Example 1 and selected in Example 2 were plated on 24-well plate at 5×10^4 cells/well and cultured for 24 hours. After removing the medium, αMEM medium (pH7.4) supplemented with 0.5 μCi/ml [^3H] arachidonic acid, 10% dialyzed FBS, 20 mM HEPES and 0.5% BSA was added to the cells at 500 μl/well. Subsequently, the cells were incubated for 16 hours in the incubator. After the culture medium containing [^3H] arachidonic acid was discarded, 500 μl/well of αMEM medium (pH7.4) supplemented with 20 mM HEPES and 0.5% BSA were added, and the cells were incubated for 4 hours in the incubator. […] Three milliliters of liquid scintilator were added to the supernatant described above to measure the radioactivity. Based on this measured value, a calculation was made using the following formula, and the promoting activity of arachidonic acid metabolite release was represented by % of control. The activity of the sample-adding group was calculated using a control value configured in each plate. % of control=[…]
X: The radioactivity in the sample-adding group
C: The means of the radioactivity in 4 wells of control (no sample) […]

[2] = biological target: T1, TGR23-2 expressing CHO cells; experiment: Enhancing activity of intracellular cAMP production; format: cell-based
Procedure: The CHO/TGR23-2 cells prepared in Example 1 and selected in Example 2 were plated on 24-well plate at 7×10^4 cells/well and cultured for 48 hours. The cells were washed with αMEM medium (pH7.5) containing 0.2 mM 3-isobutyl-methylxanthine, 0.05% BSA and 20 mM HEPES (hereafter, αMEM medium (pH7.5) containing 0.2 mM 3-isobutyl-methylxanthine, 0.05% BSA and 20 mM HEPES may be referred to as a reaction buffer). Subsequently, 0.5 ml of the reaction buffer was added, and the solution was incubated for 30 minutes in the incubator. The reaction buffer was removed and 0.25 ml of the reaction buffer was freshly added to the cells. Then, the cells were admixed with a sample and 0.25 ml of the reaction buffer containing 2 μM forskoline, and incubated at 37° C. for 30 minutes. Intracellular cAMP was extracted by removing the reaction solution and adding 0.5 ml of the solution for cell lysis attached with cAMP EIA Kit (Applied Biosystems). The cAMP level in the extract was quantified with the same kit. Based on this measured value, a calculation was made using the following formula, and the enhancing/inhibiting activity for cAMP production was represented by % of control. The activity of the sample-adding group was calculated using a control value configured in each plate. % of control=(X−C)/(T−C)×100
X: The cAMP level in the sample-adding group
T: The means of the cAMP level in 3 wells of positive control (no sample, with stimulus of forskoline)
C: The means of the cAMP level in 3 wells of negative control (no sample, without stimulus of forskoline)
In addition, for the same sample, in accordance with the method shown in Example 4, an arachidonic acid metabolite releasing activity was assayed.
Four microlitters each of the above-mentioned HPLC active fractions of rat whole brain extracts (Fraction numbers 18, 20 and 22 to 23) was added to 100 μl of 0.2 M ammonium acetate and incubated at 37° C. for 2 hours with 3 μg of Pronase. Subsequently, Pronase added, was inactivated by heating in boiling water for 10 minutes. To this solution, one ml of distilled water containing 0.05 mg of BSA and 0.05 mg of CHAPS was added. Further, it was lyophilized. For the lyophilized sample, enhancing activity for intracellular cAMP production was assayed by adding to TGR23-2 expressing CHO cells according to the method shown in Example 3.
Human TGR23-2 ligand (1-20) prepared by the method described in Example 17 was administered to TGR23-1 expressing CHO cells and TGR23-2 expressing CHO cells at a variety of concentrations according to the method described in Example 3, and the enhancing activity of intracellular cAMP production was determined.
Further, human TGR23-2 ligand (1-20) and rat TGR23-2 ligand (1-18) prepared by the method described in Example 19 were administered to TGR23-1 expressing CHO cells and TGR23-2 expressing CHO cells at a variety of concentrations, and the same assay as described above was carried out under the condition of no forskolin. A calculation was made using the following formula, and the enhancing activity for cAMP production was represented by % of control: % of control=X/C×100;
X: The cAMP level in the sample-adding group; and
C: Control (no sample, without stimulus of forskoline).

Row | Sequence | enhancing activity of arachidonic acid metabolite release [1] | enhancing activity of intracellular cAMP production ([2]; no forskolin) | enhancing activity of intracellular cAMP production ([2]; with forskolin)
1 | SFRNGVGSGVKKTSFRRA [rat TGR23-2 ligand (1-18), Ser-Phe-Arg-Asn-Gly-Val-Gly-Ser-Gly-Val-Lys-Lys-Thr-Ser-Phe-Arg-Arg-Ala] | enhance the arachidonic acid metabolite release | enhance the intracellular cAMP production | specifically exhibits an enhancing activity for cAMP production
2 | SFRNGVGTGMKKTSFQRAKS [human TGR23-2 ligand (1-20)] | enhance the arachidonic acid metabolite release | enhance the intracellular cAMP production | clearly enhances cAMP production
